Experimental data: ChEMBL document CHEMBL1140941 (J Med Chem, 2009)
The source made the active and inactive calls. The rule behind the calls is not given here.

Key:
[1] = Tmax in CD rat at 3 mg/kg, iv; assay type: ADME, organism-based; parameters: dose 3 mg/kg, route intravenous; details: in vivo
[2] = molecular target: T1, Progesterone receptor (Homo sapiens) (UniProt P06401); assay: Agonist activity at gal-PR expressed in african green monkey CV1 cells co-expressing MH100 by luciferase reporter gene assay; assay type: functional, cell-based; details: CV-1
T1 sequence (whole entry): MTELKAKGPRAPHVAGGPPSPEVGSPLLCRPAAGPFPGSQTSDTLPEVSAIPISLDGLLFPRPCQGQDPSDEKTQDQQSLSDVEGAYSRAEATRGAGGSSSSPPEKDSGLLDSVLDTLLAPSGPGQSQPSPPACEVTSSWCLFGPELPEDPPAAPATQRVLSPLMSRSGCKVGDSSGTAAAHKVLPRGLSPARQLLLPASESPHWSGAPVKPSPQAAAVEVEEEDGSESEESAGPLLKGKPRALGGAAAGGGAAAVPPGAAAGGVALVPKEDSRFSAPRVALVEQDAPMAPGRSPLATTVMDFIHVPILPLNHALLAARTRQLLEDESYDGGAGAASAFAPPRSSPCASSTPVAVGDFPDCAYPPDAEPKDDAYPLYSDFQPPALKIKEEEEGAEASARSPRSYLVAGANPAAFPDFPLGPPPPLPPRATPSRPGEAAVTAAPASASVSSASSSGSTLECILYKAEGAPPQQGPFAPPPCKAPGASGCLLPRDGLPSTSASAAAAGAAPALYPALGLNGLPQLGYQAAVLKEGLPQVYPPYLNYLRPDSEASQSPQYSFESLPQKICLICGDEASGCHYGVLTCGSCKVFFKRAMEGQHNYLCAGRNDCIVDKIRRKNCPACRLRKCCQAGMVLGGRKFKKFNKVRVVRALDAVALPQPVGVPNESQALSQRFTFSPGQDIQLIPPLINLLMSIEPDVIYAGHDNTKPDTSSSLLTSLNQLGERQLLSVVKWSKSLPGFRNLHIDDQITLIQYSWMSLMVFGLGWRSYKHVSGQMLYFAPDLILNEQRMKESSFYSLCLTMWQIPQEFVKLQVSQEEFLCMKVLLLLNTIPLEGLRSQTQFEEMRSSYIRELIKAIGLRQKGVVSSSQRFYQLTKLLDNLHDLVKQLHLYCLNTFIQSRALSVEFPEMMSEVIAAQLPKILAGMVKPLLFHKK

[3] = system: Mus musculus; assay: Reduction of plasma total cholesterol level in western diet-induced hyperlipidemia LDLR knockout mouse model at 1 mg/kg, po administered for 6 weeks; assay type: functional; parameters: scale not given: the % may be the effect or the level left
[4] = molecular target: T2, Estrogen receptor (Homo sapiens) (UniProt P03372); assay: Agonist activity at gal-ERalpha expressed in african green monkey CV1 cells co-expressing MH100 up to 10 uM by luciferase reporter gene assay relative to control; assay type: functional, cell-based; details: CV-1
T2 sequence (whole entry): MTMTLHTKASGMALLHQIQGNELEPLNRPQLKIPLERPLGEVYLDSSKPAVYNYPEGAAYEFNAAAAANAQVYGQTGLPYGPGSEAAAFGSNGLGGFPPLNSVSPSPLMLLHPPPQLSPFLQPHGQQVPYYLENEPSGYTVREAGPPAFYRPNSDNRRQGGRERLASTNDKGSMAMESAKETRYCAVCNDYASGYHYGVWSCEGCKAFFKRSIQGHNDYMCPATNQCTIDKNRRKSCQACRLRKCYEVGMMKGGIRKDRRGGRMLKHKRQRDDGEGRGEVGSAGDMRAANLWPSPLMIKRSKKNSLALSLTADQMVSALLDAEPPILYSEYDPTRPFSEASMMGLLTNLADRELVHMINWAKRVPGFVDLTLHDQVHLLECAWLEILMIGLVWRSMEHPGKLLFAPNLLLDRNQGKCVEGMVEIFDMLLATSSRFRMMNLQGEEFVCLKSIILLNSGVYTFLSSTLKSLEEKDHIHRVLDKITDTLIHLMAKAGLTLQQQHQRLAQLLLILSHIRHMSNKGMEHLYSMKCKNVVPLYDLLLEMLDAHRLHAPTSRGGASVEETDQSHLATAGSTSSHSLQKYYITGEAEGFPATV

[5] = molecular target: Mineralocorticoid receptor (Homo sapiens, UniProt P08235); assay: Antagonist activity at gal-MR expressed in african green monkey CV1 cells co-expressing MH100 by luciferase reporter gene assay; assay type: functional, cell-based, CV-1
[6] = molecular target: T2, Estrogen receptor (Homo sapiens); assay: Agonist activity at gal-ERalpha expressed in african green monkey CV1 cells co-expressing MH100 by luciferase reporter gene assay; assay type: functional, cell-based; details: CV-1
[7] = Cmax in CD rat at 3 mg/kg, po; assay type: ADME, organism-based; parameters: dose 3 mg/kg, route oral; details: in vivo
[8] = system: Mus musculus; assay: Reduction of plasma triglyceride level in C57BL/6 mouse at 10 mg/kg, po administered for 7 days measured after 3 hrs; assay type: ADME, organism-based; parameters: dose 10 mg/kg, route oral; details: in vivo
[9] = system: Mus musculus; assay: Reduction of plasma total cholesterol level in C57BL/6 mouse at 10 mg/kg, po administered for 7 days measured after 3 hrs; assay type: ADME, organism-based; parameters: dose 10 mg/kg, route oral; details: in vivo
[10] = molecular target: Steroid hormone receptor ERR2 (Homo sapiens) (UniProt O95718); assay: Antagonist activity at ERRbeta expressed in african green monkey CV1 cells by luciferase reporter gene assay; assay type: functional, cell-based; details: CV-1
[11] = molecular target: T3, Androgen receptor (Homo sapiens) (UniProt P10275); assay: Agonist activity at human gal-AR expressed in african green monkey CV1 cells co-expressing MH100 with pGRIP1 co-factor by luciferase reporter gene assay; assay type: functional, cell-based; details: CV-1
T3 sequence (whole entry): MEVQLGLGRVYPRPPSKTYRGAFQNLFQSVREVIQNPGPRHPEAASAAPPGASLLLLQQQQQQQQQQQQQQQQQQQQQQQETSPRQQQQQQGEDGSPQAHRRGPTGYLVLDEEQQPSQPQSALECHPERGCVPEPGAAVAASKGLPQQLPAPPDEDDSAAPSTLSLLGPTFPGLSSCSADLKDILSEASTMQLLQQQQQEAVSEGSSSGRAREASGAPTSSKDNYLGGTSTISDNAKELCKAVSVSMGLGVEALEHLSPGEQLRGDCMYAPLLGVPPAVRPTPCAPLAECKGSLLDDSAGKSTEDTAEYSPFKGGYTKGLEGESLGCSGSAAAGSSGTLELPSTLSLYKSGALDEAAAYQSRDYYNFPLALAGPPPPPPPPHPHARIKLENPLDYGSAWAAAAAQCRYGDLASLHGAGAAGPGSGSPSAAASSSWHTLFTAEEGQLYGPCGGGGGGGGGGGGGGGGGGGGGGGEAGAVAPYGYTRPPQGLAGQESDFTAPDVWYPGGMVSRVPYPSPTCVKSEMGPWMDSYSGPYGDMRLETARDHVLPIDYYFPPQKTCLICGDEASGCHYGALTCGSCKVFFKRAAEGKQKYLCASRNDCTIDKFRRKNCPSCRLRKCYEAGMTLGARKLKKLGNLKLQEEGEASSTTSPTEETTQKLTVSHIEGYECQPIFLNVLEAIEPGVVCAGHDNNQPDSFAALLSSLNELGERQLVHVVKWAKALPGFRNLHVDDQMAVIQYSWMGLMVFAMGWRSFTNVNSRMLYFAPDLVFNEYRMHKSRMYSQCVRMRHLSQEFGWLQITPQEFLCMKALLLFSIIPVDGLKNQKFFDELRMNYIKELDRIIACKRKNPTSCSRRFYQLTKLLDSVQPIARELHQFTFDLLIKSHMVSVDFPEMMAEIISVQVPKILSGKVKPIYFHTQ

Chain of Steroid hormone receptor ERR2 (Homo sapiens) (O95718 whole entry): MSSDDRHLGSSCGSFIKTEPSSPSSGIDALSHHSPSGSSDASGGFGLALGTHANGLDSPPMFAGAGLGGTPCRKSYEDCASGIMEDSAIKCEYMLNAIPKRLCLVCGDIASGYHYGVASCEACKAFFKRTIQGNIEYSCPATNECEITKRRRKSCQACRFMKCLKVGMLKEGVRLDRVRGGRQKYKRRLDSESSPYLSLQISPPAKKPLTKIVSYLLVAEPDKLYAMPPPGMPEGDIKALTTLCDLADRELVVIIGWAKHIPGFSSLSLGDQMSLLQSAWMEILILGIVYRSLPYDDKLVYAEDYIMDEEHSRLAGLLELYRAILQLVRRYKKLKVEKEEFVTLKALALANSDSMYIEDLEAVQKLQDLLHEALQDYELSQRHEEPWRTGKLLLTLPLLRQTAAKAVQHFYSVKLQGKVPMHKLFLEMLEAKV
Chain of Mineralocorticoid receptor (P08235 whole entry): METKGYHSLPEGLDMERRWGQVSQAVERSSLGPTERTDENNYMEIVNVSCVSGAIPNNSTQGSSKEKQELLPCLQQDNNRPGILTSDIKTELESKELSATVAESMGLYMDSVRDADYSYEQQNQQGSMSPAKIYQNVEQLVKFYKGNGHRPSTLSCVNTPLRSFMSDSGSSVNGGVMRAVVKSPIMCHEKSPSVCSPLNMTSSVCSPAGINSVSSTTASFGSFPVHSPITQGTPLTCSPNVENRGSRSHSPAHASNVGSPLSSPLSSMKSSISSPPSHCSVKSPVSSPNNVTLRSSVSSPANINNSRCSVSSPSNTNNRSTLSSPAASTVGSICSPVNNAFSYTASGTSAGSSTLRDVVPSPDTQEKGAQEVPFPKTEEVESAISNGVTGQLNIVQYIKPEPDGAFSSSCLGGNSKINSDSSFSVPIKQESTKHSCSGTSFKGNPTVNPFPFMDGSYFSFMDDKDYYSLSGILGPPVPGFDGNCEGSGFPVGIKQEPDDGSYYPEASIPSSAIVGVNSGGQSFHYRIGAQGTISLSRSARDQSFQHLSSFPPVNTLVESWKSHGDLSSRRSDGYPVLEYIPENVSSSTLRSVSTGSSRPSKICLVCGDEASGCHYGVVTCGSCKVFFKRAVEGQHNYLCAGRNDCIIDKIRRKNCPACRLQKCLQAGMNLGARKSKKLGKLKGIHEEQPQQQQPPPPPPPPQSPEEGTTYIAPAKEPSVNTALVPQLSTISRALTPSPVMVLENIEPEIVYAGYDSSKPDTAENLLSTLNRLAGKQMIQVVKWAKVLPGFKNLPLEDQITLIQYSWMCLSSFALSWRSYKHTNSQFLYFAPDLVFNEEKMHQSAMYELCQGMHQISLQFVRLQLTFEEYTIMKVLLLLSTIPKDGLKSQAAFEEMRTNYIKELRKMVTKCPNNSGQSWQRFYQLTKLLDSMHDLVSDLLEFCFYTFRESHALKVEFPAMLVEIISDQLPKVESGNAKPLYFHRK

- Tmax [1]: 1.2 min
- Activity [2]: inactive
- Activity [4]: inactive
- IC50 [5]: 10 µM
- Activity [6]: inactive
- Cmax [7]: 500 nM
- Activity [8]: 62 mg/dL
- Activity [9]: 78.1 mg/dL
- Activity [10]: inactive
- Activity [11]: inactive
Structure (SMILES): CC(C)OC(=O)C1=CN(C(=O)c2ccc(F)c(F)c2)CC(C)(C)c2c1[nH]c1ccccc21 [TUROFEXORATE ISOPROPYL]
- Activity [3]: 23%
